Laboratory results reported in US10131652B2, “Pyrimidinyloxy benzene derivatives as herbicides” (E. I. DU PONT DE NEMOURS AND COMPANY, priority 2014, dated 2018).
Read-outs that look alike come from different tables or passages of the source.

Columns and labels:
Assay type in all cases: in vivo
[1] = tested on: barnyardgrass (Echinochloa crus-galli); test: Test B pre-/postemergence plant response; settings: Echinochloa crus-galli, 240 h, 1000 g ai/ha, 0 to 100 scale (0 no effect, 100 complete control), read-out: Plant response rating, Barnyardgrass
Method in brief: (§1)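 Evaluation is visual, about 10 days after application, rating injury from 0 (none) to 100 (complete control) relative to untreated controls. Application was a preemergence soil spray on seeded pots or a postemergence spray on one- to two-leaf plants.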

[2] = tested on: corn (Zea mays); test: Test B pre-/postemergence plant response; settings: Zea mays, 240 h, 1000 g ai/ha, 0 to 100 scale (0 no effect, 100 complete control)
Method in brief: as §1

[3] = tested on: giant foxtail (Setaria faberii); test: Test B pre-/postemergence plant response; settings: Setaria faberi, 240 h, 1000 g ai/ha, 0 to 100 scale (0 no effect, 100 complete control), read-out: Plant response rating, Foxtail, Giant
Method in brief: as §1

[4] = tested on: pigweed (Amaranthus retroflexus); test: Test B pre-/postemergence plant response; settings: Amaranthus retroflexus, 240 h, 1000 g ai/ha, 0 to 100 scale (0 no effect, 100 complete control), read-out: Plant response rating, Pigweed
Method in brief: as §1

[5] = tested on: wheat (Triticum aestivum); test: Test B pre-/postemergence plant response; settings: Triticum aestivum, 240 h, 1000 g ai/ha, 0 to 100 scale (0 no effect, 100 complete control), read-out: Plant response rating, Wheat
Method in brief: as §1

[6] = tested on: barnyardgrass (Echinochloa crus-galli); test: Test C flooded paddy test plant response; settings: Echinochloa crus-galli; Flood, 250 g ai/ha; scale of 0 to 100 where 0 is no effect and 100 is complete control; 13 to 15 days; read-out: Barnyardgrass plant response rating
Method in brief: (§2)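 Plants grown to the 2-leaf stage; pots flooded to 3 cm above soil, test compounds applied directly to paddy water, depth maintained throughout. Greenhouse for 13 to 15 days, then visual rating versus controls on a 0–100 scale (0 no effect, 100 complete control).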

[7] = tested on: ducksalad (Heteranthera limosa); test: Test C flooded paddy test plant response; settings: Heteranthera limosa; Flood, 250 g ai/ha; scale of 0 to 100 where 0 is no effect and 100 is complete control; 13 to 15 days; read-out: Ducksalad plant response rating
Method in brief: as §2

[8] = tested on: rice (Oryza sativa); test: Test C flooded paddy test plant response; settings: Oryza sativa; Flood, 250 g ai/ha; scale of 0 to 100 where 0 is no effect and 100 is complete control; 13 to 15 days; read-out: Rice plant response rating
Method in brief: as §2

[9] = tested on: small-flower umbrella sedge (Cyperus difformis); test: Test C flooded paddy test plant response; settings: Cyperus difformis; Flood, 250 g ai/ha; scale of 0 to 100 where 0 is no effect and 100 is complete control; 13 to 15 days; read-out: Sedge, Umbrella plant response rating
Method in brief: as §2

[10] = tested on: galium (catchweed bedstraw, Galium aparine); test: Test D pre-/postemergence plant response; settings: Galium; for pest or weed control at 8 g/ha: 8 g ai/ha; for pest or weed control at 16 g/ha: 16 g ai/ha; for pest or weed control at 31 g/ha: 31 g ai/ha; for pest or weed control at 62 g/ha: 62 g ai/ha
Method in brief: (§3)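 Two application timings were run together: preemergence onto seeded loam–sand pots, and postemergence onto 1- to 4-leaf plants (2 to 18 cm) in peat/vermiculite medium with starter nutrients. Formulation was a non-phytotoxic solvent with surfactant. Ratings, 0 to 100, were made visually versus controls after 13 to 15 greenhouse days.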

[11] = tested on: johnsongrass (Sorghum halepense); test: Test D pre-/postemergence plant response; settings: Sorghum halepense; for pest or weed control at 8 g/ha: 8 g ai/ha; for pest or weed control at 16 g/ha: 16 g ai/ha; for pest or weed control at 31 g/ha: 31 g ai/ha; for pest or weed control at 62 g/ha: 62 g ai/ha
Method in brief: as §3

[12] = tested on: oilseed rape (Brassica napus); test: Test D pre-/postemergence plant response; settings: Brassica napus; for plant injury at 8 g/ha: 8 g ai/ha; for plant injury at 16 g/ha: 16 g ai/ha; for plant injury at 31 g/ha: 31 g ai/ha; for plant injury at 62 g/ha: 62 g ai/ha
Method in brief: as §3

[13] = tested on: ragweed (common ragweed, Ambrosia elatior); test: Test D pre-/postemergence plant response; settings: Ambrosia artemisiifolia; for pest or weed control at 8 g/ha: 8 g ai/ha; for pest or weed control at 16 g/ha: 16 g ai/ha; for pest or weed control at 31 g/ha: 31 g ai/ha; for pest or weed control at 62 g/ha: 62 g ai/ha
Method in brief: as §3

[14] = tested on: winter wheat (Triticum aestivum); test: Test D pre-/postemergence plant response; settings: Triticum aestivum; for plant injury at 8 g/ha: 8 g ai/ha; for plant injury at 16 g/ha: 16 g ai/ha; for plant injury at 31 g/ha: 31 g ai/ha; for plant injury at 62 g/ha: 62 g ai/ha
Method in brief: as §3

[15] = tested on: yellow nutsedge (Cyperus esculentus); test: Test D pre-/postemergence plant response; settings: Cyperus; for pest or weed control at 8 g/ha: 8 g ai/ha; for pest or weed control at 16 g/ha: 16 g ai/ha; for pest or weed control at 31 g/ha: 31 g ai/ha; for pest or weed control at 62 g/ha: 62 g ai/ha
Method in brief: as §3

[16] = post-emergence, Postemergence, scale 0 to 100 (0 no effect, 100 complete control), read-out: Galium plant response rating
[17] = pre-emergence, Preemergence, scale 0 to 100 (0 no effect, 100 complete control), read-out: Plant response rating, Galium
[18] = post-emergence, Postemergence, scale 0 to 100 (0 no effect, 100 complete control), read-out: Johnsongrass plant response rating
[19] = pre-emergence, Preemergence, scale 0 to 100 (0 no effect, 100 complete control), read-out: Plant response rating, Johnsongrass
[20] = post-emergence, Postemergence, scale 0 to 100 (0 no effect, 100 complete control), read-out: Oilseed Rape plant response rating
[21] = pre-emergence, Preemergence, scale 0 to 100 (0 no effect, 100 complete control), read-out: Plant response rating, Oilseed Rape
[22] = post-emergence, Postemergence, scale 0 to 100 (0 no effect, 100 complete control), read-out: Ragweed plant response rating
[23] = pre-emergence, Preemergence, scale 0 to 100 (0 no effect, 100 complete control), read-out: Plant response rating, Ragweed
[24] = post-emergence, Postemergence, scale 0 to 100 (0 no effect, 100 complete control), read-out: Wheat plant response rating
[25] = pre-emergence, Preemergence, scale 0 to 100 (0 no effect, 100 complete control), read-out: Plant response rating, Wheat
[26] = post-emergence, Postemergence, scale 0 to 100 (0 no effect, 100 complete control), read-out: Nutsedge, Yellow plant response rating
[27] = pre-emergence, Preemergence, scale 0 to 100 (0 no effect, 100 complete control), read-out: Plant response rating, Nutsedge, Yellow

Work on `FC(F)c1cc(-c2ccccc2Oc2ncc(Cl)cn2)no1` [Compound 35, 5-chloro-2-[2-[5-(difluoromethyl)-3-isoxazolyl]phenoxy]pyrimidine] yielded a pest or weed control at 1000 g/ha ([1]; post-emergence, Postemergence) of 100%, a pest or weed control at 1000 g/ha ([1]; pre-emergence, Preemergence) of 100% and a Corn plant response rating (crop injury, 0 = no effect, 100 = complete kill) at 1000 g/ha ([2]; post-emergence, Postemergence) of 90%. The Corn plant response rating (crop injury, 0 = no effect, 100 = complete kill) at 1000 g/ha ([2]; pre-emergence, Preemergence) was 30%, the pest or weed control at 1000 g/ha ([3]; post-emergence, Postemergence) was 90% and the pest or weed control at 1000 g/ha ([3]; pre-emergence, Preemergence) was 100%. It also gave a pest or weed control at 1000 g/ha ([4]; post-emergence, Postemergence) of 100%, a pest or weed control at 1000 g/ha ([4]; pre-emergence, Preemergence) of 10% and a plant injury at 1000 g/ha ([5]; post-emergence, Postemergence) of 80%. It also gave a plant injury at 1000 g/ha ([5]; pre-emergence, Preemergence) of 60%, a pest or weed control at 250 g/ha [6] of 65% and a pest or weed control at 250 g/ha [7] of 100%. The plant injury at 250 g/ha [8] was 80%, the pest or weed control at 250 g/ha [9] was 100% and the pest or weed control at 8 g/ha ([10]; post-emergence, Postemergence, read-out: Plant response rating (scale 0 to 100), Galium) was 80%. It also gave a pest or weed control at 16 g/ha [10, 16] of 70%, a pest or weed control at 31 g/ha [10, 16] of 75% and a pest or weed control at 62 g/ha ([10]; post-emergence, Postemergence, scale 0 to 100, 0 no effect, 100 complete control, read-out: Plant response rating, Galium) of 85%. The pest or weed control at 8 g/ha [10, 17] was 85%, the pest or weed control at 16 g/ha [10, 17] was 100% and the pest or weed control at 31 g/ha [10, 17] was 100%. It also gave a pest or weed control at 62 g/ha [10, 17] of 100%, a pest or weed control at 8 g/ha ([11]; post-emergence, Postemergence, read-out: Plant response rating (scale 0 to 100), Johnsongrass) of 0% and a pest or weed control at 16 g/ha [11, 18] of 10%. The pest or weed control at 31 g/ha [11, 18] was 5%, the pest or weed control at 62 g/ha ([11]; post-emergence, Postemergence, scale 0 to 100, 0 no effect, 100 complete control, read-out: Plant response rating, Johnsongrass) was 35% and the pest or weed control at 8 g/ha [11, 19] was 0%. The pest or weed control at 16 g/ha [11, 19] was 10%, the pest or weed control at 31 g/ha [11, 19] was 60% and the pest or weed control at 62 g/ha [11, 19] was 98%. For the same compound, the plant injury at 8 g/ha ([12]; post-emergence, Postemergence, read-out: Plant response rating (scale 0 to 100), Oilseed Rape) was 5%, the plant injury at 16 g/ha [12, 20] was 45% and the plant injury at 31 g/ha [12, 20] was 80%. For the same compound, the plant injury at 62 g/ha ([12]; post-emergence, Postemergence, scale 0 to 100, 0 no effect, 100 complete control, read-out: Plant response rating, Oilseed Rape) was 98%, the plant injury at 8 g/ha [12, 21] was 85% and the plant injury at 16 g/ha [12, 21] was 98%. It also gave a plant injury at 31 g/ha [12, 21] of 100%, a plant injury at 62 g/ha [12, 21] of 100% and a pest or weed control at 8 g/ha ([13]; post-emergence, Postemergence, read-out: Plant response rating (scale 0 to 100), Ragweed) of 40%. For the same compound, the pest or weed control at 16 g/ha [13, 22] was 45%, the pest or weed control at 31 g/ha [13, 22] was 85% and the pest or weed control at 62 g/ha ([13]; post-emergence, Postemergence, scale 0 to 100, 0 no effect, 100 complete control, read-out: Plant response rating, Ragweed) was 75%. It also gave a pest or weed control at 8 g/ha [13, 23] of 55%, a pest or weed control at 16 g/ha [13, 23] of 40% and a pest or weed control at 31 g/ha [13, 23] of 75%. The pest or weed control at 62 g/ha [13, 23] was 80%, the plant injury at 8 g/ha ([14]; post-emergence, Postemergence, read-out: Plant response rating (scale 0 to 100), Wheat) was 0% and the plant injury at 16 g/ha [14, 24] was 0%. The plant injury at 31 g/ha [14, 24] was 5%, the plant injury at 62 g/ha ([14]; post-emergence, Postemergence, scale 0 to 100, 0 no effect, 100 complete control, read-out: Plant response rating, Wheat) was 10% and the plant injury at 8 g/ha [14, 25] was 0%. It also gave a plant injury at 16 g/ha [14, 25] of 0%, a plant injury at 31 g/ha [14, 25] of 5% and a plant injury at 62 g/ha [14, 25] of 15%. It also gave a pest or weed control at 8 g/ha ([15]; post-emergence, Postemergence, read-out: Plant response rating (scale 0 to 100), Nutsedge, Yellow) of 5%, a pest or weed control at 16 g/ha [15, 26] of 5% and a pest or weed control at 31 g/ha [15, 26] of 5%. For the same compound, the pest or weed control at 62 g/ha ([15]; post-emergence, Postemergence, scale 0 to 100, 0 no effect, 100 complete control, read-out: Plant response rating, Nutsedge, Yellow) was 5%, the pest or weed control at 8 g/ha [15, 27] was 0% and the pest or weed control at 16 g/ha [15, 27] was 0%. The pest or weed control at 31 g/ha [15, 27] was 5% and the pest or weed control at 62 g/ha [15, 27] was 5%.
